Assay results reported in US8486431B2 (priority 2005, dated 2013).

Key:
[1] = target: T1, glucose-6-phosphate dehydrogenase (G6PD) (Saccharomyces cerevisiae, UniProt P11412); experiment: Protein denaturation experiment: enzyme activity of G6PD reacted with chlorine dioxide; format: biochemical, yeast; details: 0.07 ppm chlorine dioxide in PBS pH7; 25° C., 2 minutes; compared with 0 ppm
T1 construct: purchased Sigma Corp
Experimental: The enzyme activity of G6PD was determined by observing absorption of NADPH by a spectral photometer, with using NADP and glucose-phosphoric acid as the substrate. Specific reaction conditions were set according to the manufacturer's (Sigma Corp.) instructions.
The concentration values on the horizontal axis are shown as being converted into the unit of ppm. The “specific activity” on the vertical axis represents enzyme activity (unit/mg) per 1 mg of protein

[2] = test system: Type A influenza strain A/PR8 (H1N1); details: mouse, in vivo
[3] = test system: Type A influenza strain A/PR8 (H1N1); parameters: species or system mice; details: mouse, in vivo

T1 sequence (P11412 whole entry): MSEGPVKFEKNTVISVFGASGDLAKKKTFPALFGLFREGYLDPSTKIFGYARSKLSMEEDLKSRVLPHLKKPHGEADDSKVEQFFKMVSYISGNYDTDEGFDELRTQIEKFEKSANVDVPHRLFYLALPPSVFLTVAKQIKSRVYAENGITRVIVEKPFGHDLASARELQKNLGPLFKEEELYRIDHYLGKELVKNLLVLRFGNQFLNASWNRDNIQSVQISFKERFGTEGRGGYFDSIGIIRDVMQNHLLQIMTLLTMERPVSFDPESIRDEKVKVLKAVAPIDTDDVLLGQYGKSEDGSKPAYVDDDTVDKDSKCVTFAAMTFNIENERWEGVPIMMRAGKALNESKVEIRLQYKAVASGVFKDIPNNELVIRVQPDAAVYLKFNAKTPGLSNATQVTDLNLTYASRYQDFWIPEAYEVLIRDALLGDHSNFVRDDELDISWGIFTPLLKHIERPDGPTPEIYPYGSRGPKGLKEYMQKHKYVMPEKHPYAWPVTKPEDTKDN

SMILES: [O][Cl+][O-] [chlorine dioxide]
- reduction in the enzyme activity of G6PD [1]: about 60%
- chlorine dioxide concentration required for preventing influenza virus infection [2]: 0.0001 ppm
- chlorine dioxide gas concentration effective for influenza onset inhibition [2]: at least 0.05 ppm
- deaths compared with 0 ppm group [2]: deaths occurred with delay
- number of onsets of influenza and virus amount in the lung versus control group (0 ppm) [2]: no significant difference was found
- Total virus amount in lung tissues on Day 3 after 10 LD50 virus exposure (TClD50 values) [3]: 10^3 TClD50
- lung virus amount relative to that of the control group (0 ppm group) [3]: 5%
- total virus amounts in lung after delayed administration [3]: smaller than expected
